Where “and” joins values, the source holds several entries; their conditions need not be identical. Equal values may be shown once. Inconclusive results and toxic doses are left out.
System: L1210 leukemia ip in BDF1 mice, survival T/C
Assay: NCI In Vivo Anticancer Drug Screen. Data for tumor model L1210 Leukemia (intraperitoneal) in B6D2F1 (BDF1) mice
Details: endpoint: mean survival time, higher = longer survival
Summary of the method: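 Transplantable tumor model; survival measured in treated vs vehicle control mice. Value = treated/control.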

## C=C(CC(N)=O)C(=O)O (tested in a mixture with another compound)
dose: 6.25 mg/kg/injection, schedule: Q01DX009 (ip), vehicle: saline
  T/C: 97 % of control
dose: 12.5 mg/kg/injection, schedule: Q01DX009 (ip), vehicle: saline
  T/C: 100 % of control
dose: 20.0 mg/kg/injection, schedule: Q01DX009 (ip), vehicle: saline
  T/C: 105 % of control
dose: 25.0 mg/kg/injection, schedule: Q01DX009 (ip), vehicle: saline
  T/C: 105 % of control
dose: 35.0 mg/kg/injection, schedule: Q01DX009 (ip), vehicle: saline
  T/C: 94 % of control
dose: 50.0 mg/kg/injection, schedule: Q01DX001 (ip), vehicle: saline
  T/C: 107 % of control
dose: 50.0 mg/kg/injection, schedule: Q01DX009 (ip), vehicle: saline
  T/C: 106 % of control
dose: 65.0 mg/kg/injection, schedule: Q01DX009 (ip), vehicle: saline
  T/C: 102 % of control
dose: 100.0 mg/kg/injection, schedule: Q01DX001 (ip), vehicle: saline
  T/C: 118 % of control
dose: 100.0 mg/kg/injection, schedule: Q01DX009 (ip), vehicle: saline
  T/C: 111 % of control
dose: 125.0 mg/kg/injection, schedule: Q01DX009 (ip), vehicle: saline
  T/C: 119 % of control
dose: 177.0 mg/kg/injection, schedule: Q01DX001 (ip), vehicle: saline
  T/C: 110 % of control
dose: 200.0 mg/kg/injection, schedule: Q01DX001 (ip), vehicle: saline
  T/C: 107 % of control
dose: 200.0 mg/kg/injection, schedule: Q01DX009 (ip), vehicle: saline
  T/C: 111 % of control
dose: 266.0 mg/kg/injection, schedule: Q01DX001 (ip), vehicle: saline
  T/C: 124 % of control
dose: 270.0 mg/kg/injection, schedule: Q01DX001 (ip), vehicle: saline
  T/C: 110 % of control
dose: 270.0 mg/kg/injection, schedule: Q01DX009 (ip), vehicle: saline
  T/C: 120 % of control and 123 % of control
dose: 400.0 mg/kg/injection, schedule: Q01DX001 (ip), vehicle: saline
  T/C: 111 % of control
dose: 400.0 mg/kg/injection, schedule: Q01DX009 (ip), vehicle: saline
  T/C: 101 % of control and 111 % of control and 117 % of control
dose: 600.0 mg/kg/injection, schedule: Q01DX001 (ip), vehicle: saline
  T/C: 114 % of control
dose: 600.0 mg/kg/injection, schedule: Q01DX009 (ip), vehicle: saline
  T/C: 113 % of control
dose: 800.0 mg/kg/injection, schedule: Q01DX001 (ip), vehicle: saline
  T/C: 122 % of control
dose: 1000.0 mg/kg/injection, schedule: Q01DX001 (ip), vehicle: saline
  T/C: 113 % of control

## COc1ccc(C(=O)NC(=S)Nc2cccc(Cl)c2)cc1
dose: 100.0 mg/kg/injection, schedule: Q01DX009 (ip), vehicle: Klucel (hydroxypropylcellulose) (HPC)
  T/C: 91 % of control
dose: 100.0 mg/kg/injection, schedule: Q04DX003 (ip), vehicle: Klucel (hydroxypropylcellulose) (HPC)
  T/C: 94 % of control
dose: 200.0 mg/kg/injection, schedule: Q01DX009 (ip), vehicle: Klucel (hydroxypropylcellulose) (HPC)
  T/C: 98 % of control
dose: 200.0 mg/kg/injection, schedule: Q04DX003 (ip), vehicle: Klucel (hydroxypropylcellulose) (HPC)
  T/C: 91 % of control
dose: 400.0 mg/kg/injection, schedule: Q01DX009 (ip), vehicle: Klucel (hydroxypropylcellulose) (HPC)
  T/C: 87 % of control
dose: 400.0 mg/kg/injection, schedule: Q04DX003 (ip), vehicle: Klucel (hydroxypropylcellulose) (HPC)
  T/C: 93 % of control

## CC(C)c1ccc(/C=C/C(=O)c2ccc([N+](=O)[O-])cc2)cc1
dose: 100.0 mg/kg/injection, schedule: Q04DX002 (ip), vehicle: gum acacia
  T/C: 98 % of control
dose: 200.0 mg/kg/injection, schedule: Q04DX002 (ip), vehicle: gum acacia
  T/C: 92 % of control
dose: 400.0 mg/kg/injection, schedule: Q04DX002 (ip), vehicle: gum acacia
  T/C: 95 % of control

## COc1ccc2c(c1)C1(C(=O)O)CC=CCC1(C(=O)O)C2 (stereo not given)
dose: 75.0 mg/kg/injection, schedule: Q01DX001 (ip), vehicle: saline
  T/C: 98 % of control
dose: 150.0 mg/kg/injection, schedule: Q01DX001 (ip), vehicle: saline
  T/C: 98 % of control
dose: 300.0 mg/kg/injection, schedule: Q01DX001 (ip), vehicle: saline
  T/C: 96 % of control

## COC(=O)C(N)Cc1ccc(O)c(N(CCCl)CCCl)c1 (stereo not given)
dose: 0.01 mg/kg/injection, schedule: Q01DX009 (ip), vehicle: saline
  T/C: 116 % of control
dose: 0.25 mg/kg/injection, schedule: Q01DX009 (ip), vehicle: saline
  T/C: 205 % of control
dose: 0.5 mg/kg/injection, schedule: Q01DX009 (ip), vehicle: saline
  T/C: 204 % of control
dose: 1.0 mg/kg/injection, schedule: Q01DX009 (ip), vehicle: saline
  T/C: 194 % of control
dose: 2.5 mg/kg/injection, schedule: Q01DX001 (ip), vehicle: saline
  T/C: 116 % of control
dose: 5.0 mg/kg/injection, schedule: Q01DX001 (ip), vehicle: saline
  T/C: 168 % of control
dose: 10.0 mg/kg/injection, schedule: Q01DX001 (ip), vehicle: saline
  T/C: 213 % of control

## Nc1cccc(C(=O)c2cccc(N)c2)c1
dose: 100.0 mg/kg/injection, schedule: Q01DX001 (ip), vehicle: carboxymethylcellulose (CMC)
  T/C: 96 % of control
dose: 200.0 mg/kg/injection, schedule: Q01DX001 (ip), vehicle: carboxymethylcellulose (CMC)
  T/C: 94 % of control
dose: 400.0 mg/kg/injection, schedule: Q01DX001 (ip), vehicle: carboxymethylcellulose (CMC)
  T/C: 88 % of control

From PubChem BioAssay AID248 (DTP/NCI, 2004)
